Reference: PMC7476584, “Lipophilicity trends upon fluorination of isopropyl, cyclopropyl and 3-oxetanyl groups” (Beilstein Journal of Organic Chemistry, 2020)
Where “and” joins values, the source holds several entries; their conditions need not be identical. Equal values may be shown once. Read-outs that look alike come from different tables or passages of the source.

Tests used:
[1] = cited from earlier work
[2] = set-up: method as in PMID 31414105, PMID 29999054; details: series B, reversed-phase HPLC; cited from earlier work
[3] = SMD implicit solvation, MN15; values taken from the literature; cited from earlier work
[4] = Table S1; ref Hansch, Leo, Hoekman, Exploring QSAR, 1995; cited from earlier work
[5] = 19F NMR-based octanol/water logP determination; details: for logP: n-octanol/water; for logP / logP (individual measurement): octanol/water, 25 °C, 19F NMR
[6] = Shake-flask lipophilicity (logP, logD7.4) of literature examples; assay type: physicochemical; details: geminal dimethyl 1 to cyclopropyl 2
[7] = physchem
[8] = logP (average logP), triplicate
[9] = logP average with error (standard deviation), triplicate, column Error
[10] = logP (individual measurement), single experiment

In the case of `C[C@@](CCN1Cc2cc(C#CC#C[C@@H]3C[C@@]3(F)CO)cn2C1=O)(C(=O)NO)S(C)(=O)=O` [7d], the logD7.4 ([1]; pH 7.4) is listed as 0.9.
In the case of `FC1(F)CC1(F)c1ccccc1` (centres unmarked) [B7], the logP [2] is listed as “+2.94”.
In the case of `OCCC(F)(F)CF` [G8], the “logPtheor (DFT)” value [3] is given as 1.30.
For `c1ccc(C2CC2)cc1` [B1], the logP [2] is given as “+3.40”.
For `CCCC(O)CC` (centres unmarked) [3-hexanol], the “Experimental logP for selected nonfluorinated alkanols” value [4] is given as 1.65.
`OCC1(F)CC1` [E2, (1-fluorocyclopropyl)methanol] showed a logP reduction ([5]; G9 to E2) of 0.72 logP units, a logP [5, 8] of -0.05 and a logP [5, 9] of -0.054. For the same compound, the “logP (individual measurement)” value ([5]; single experiment) was -0.06.
For `CCCCCC(C)O` (centres unmarked) [2-heptanol], the “Experimental logP for selected nonfluorinated alkanols” value [4] is given as 2.31.
`CC(CO)C(F)(F)F` (centres unmarked) [D5, 3,3,3-trifluoro-2-methylpropan-1-ol] showed a logP [5, 8] of 0.98, a logP [5, 10] of 0.977 and a logP [5, 9] of 0.978. For the same compound, the “logP (individual measurement)” value ([5]; single experiment) was “+0.978 and +0.979”.
For `CCCCC(O)CCC` (centres unmarked) [4-octanol], the “Experimental logP for selected nonfluorinated alkanols” value [4] is listed as 2.68.
For `CC(C)C(C)O` (centres unmarked) [3-methyl-2-butanol], the “Experimental logP for selected nonfluorinated alkanols” value [4] is listed as 1.28.
In the case of `F[C@@H]1[C@H](F)[C@@]1(F)c1ccccc1` [B2], the logP [2] is listed as “+2.56”.
In the case of `C[C@@](CCN1Cc2cc(C#CC#C[C@H]3C[C@]3(F)CO)cn2C1=O)(C(=O)NO)S(C)(=O)=O` [7b], the logD7.4 ([1]; pH 7.4) is given as 0.9.
For `CCCCCCCO` [1-heptanol], the “Experimental logP for selected nonfluorinated alkanols” value [4] is given as 2.72.
For `CN(C)CCCCc1ccc(C2(F)COC2)cc1` [C2], the logD7.4 ([1]; pH 7.4) is given as “–0.5”.
In the case of `C[C@@](CCN1Cc2cc(C#CC#C[C@@H]3C[C@H]3CO)cn2C1=O)(C(=O)NO)S(C)(=O)=O` [7c], the logD7.4 ([1]; pH 7.4) is listed as 1.1.
For `OCCC(F)CF` (centres unmarked) [G7, 3,4-difluorobutan-1-ol], the “logPtheor (DFT)” value [3] is listed as 1.06.
For `CN(C)CCCCc1ccc(C2COC2)cc1` [C1], the logD7.4 ([1]; pH 7.4) is given as “–0.1”.
With `CC(CO)C(F)F` (centres unmarked) [D4, 3,3-difluoro-2-methylpropan-1-ol] the logP [5, 8] was 0.58, the logP [5, 10] was 0.583 and the logP [5, 9] was 0.583. For the same compound, the “logP (individual measurement)” value ([5]; single experiment) was “+0.576 and +0.589”.
In the case of `CCCCC(C)O` (centres unmarked) [2-hexanol], the “Experimental logP for selected nonfluorinated alkanols” value [4] is given as 1.76.
For `FC1(F)CC1c1ccccc1` (centres unmarked) [B6], the logP [2] is given as “+2.91”.
For `CN(C)CCCCc1ccc(C(C)(C)C)cc1` [compound 3], the logD7.4 ([1]; pH 7.4) is given as 2.5.
In the case of `CN(C)CCCCc1ccc(C2(C)COC2)cc1` [compound 4], the logD7.4 ([1]; shake-flask) is given as -0.1 and the logP ([1]; shake-flask) is given as 2.4.
In the case of `O=C(c1ccc(CN2CCOCC2)cc1)N1CCN(C2CC2)CC1` [compound 2], the ΔlogD7.4 [6] was “+0.73” and the ΔlogP [6] was “+0.34”.
For `CCC(O)CC` [3-pentanol], the “Experimental logP for selected nonfluorinated alkanols” value [4] is given as 1.21.
In the case of `CC(C)(F)CO` [D2, 2-fluoro-2-methylpropan-1-ol], the “Δ logP branched vs linear” value ([5]; D2 vs G2) was 0.16, the logP [5, 8] was 0.1 and the logP [5, 10] was 0.11. The logP [5, 9] was 0.104 and the “logP (individual measurement)” value ([5]; single experiment) was “+0.10”.
For `CC(CO)CF` (centres unmarked) [D3, 3-fluoro-2-methylpropan-1-ol], the logP ([7]; logP (average logP)) was 0.29, the logP ([7]; logP (individual measurement)) was 0.28 and the logP ([7]; logP average with error (standard deviation)) was 0.289.
In the case of `CCCCCCC(C)O` (centres unmarked) [2-octanol], the “Experimental logP for selected nonfluorinated alkanols” value [4] is given as 2.90.
For `CC(C)(C)CO` [2,2-dimethylpropan-1-ol], the “Experimental logP for selected nonfluorinated alkanols” value [4] is given as 1.31.
In the case of `C[C@@](CCN1Cc2cc(C#CC#C[C@H]3C[C@@H]3CO)cn2C1=O)(C(=O)NO)S(C)(=O)=O` [7a], the logD7.4 ([1]; pH 7.4) is given as 1.3.
In the case of `CCCC(O)CCC` [4-heptanol], the “Experimental logP for selected nonfluorinated alkanols” value [4] is listed as 2.22.
